Assay: in vitro
Conditions: human, hela cells, % viability

SMILES | viability at 28.5 h, 10 µM [%]
CN(C)CCCNC(=O)c1cccc(Nc2cncc(-c3ccc(O)cc3)n2)c1 [CBK122669] | 87.7
O=C(NCCCNc1c(Cl)cccc1[N+](=O)[O-])c1ccc(F)cc1 [CBK264943] | 99.4
COc1ccccc1-c1nccnc1NCCCO [CBK088971] | 98.8
COc1ccc(/C=C(\C)C(=O)Nc2c(OC)cc(F)cc2OC2CCNCC2)cc1OC [CBK050353T] | 98.6
CC1CN(C)c2ccccc2CN1C(=O)Cc1cn2ccsc2n1 (centres unmarked) [CBK306355] | 89.1
CN(C)CCSc1cc(N2CCCC2)ncn1 [CBK105295] | 116
O=C(O)C1CC=CCC1C(=O)N1CCN(C(=O)c2ccco2)CC1 (centres unmarked) [CBK299784] | 94.1
Cc1nc(-c2cc3c(s2)CCN(Cc2ccc(CO)o2)C3)cs1 [CBK306411] | 90
CCOC(=O)NC(=O)CSc1nc2ccccc2[nH]1 [CBK267443] | 91.9
O=C(CC1CCN(Cc2cccc(C(F)(F)F)c2)CC1)N(Cc1ccccn1)C1CC1 [CBK286494] | 101
O=C(CSc1nc2[nH]ncc2c(=O)n1-c1ccccc1)Nc1nsc(-c2ccccc2)n1 [CBK266486] | 101
O=C(CN1C(=O)N2CCCN=C2c2ccccc21)N1CCCC1 [CBK284419] | 88.4
Cn1c(Cc2csc(NC(=O)CNC(=O)Cc3ccccc3)n2)n[nH]c1=S [CBK296765] | 102
CCCCc1noc(CN2CCCC2C(=O)NCc2ccco2)n1 (centres unmarked) [CBK304036] | 88
Cc1ccc(C#N)cc1S(=O)(=O)NC(=O)CC1CCOc2ccccc21 (centres unmarked) [CBK306476] | 85.5
Oc1cccc(-c2cc(CC3(NCc4cnc5ccccc5c4)COC3)no2)c1 [CBK289662] | 107
CSCCC(NC(=O)c1ccc(C#CC(C)(C)O)cc1)C(=O)O (centres unmarked) [CBK276698] | 93.9
O=C(Nc1nc2ccccc2s1)c1cc([N+](=O)[O-])ccc1Cl [CBK072428] | 85.9
Cc1cccnc1Nc1nc(-c2sc(N)nc2C)cs1 [CBK267147] | 90.3
CC(=O)Nc1ccc(-c2ccc(C(=O)NCc3ccc(C(C)C)cc3)cn2)cc1 [CBK158857] | 101
Cc1cc(C(=O)N2CCc3c(sc4ncnc(N)c34)C2)sc1C [CBK306420] | 99.4
CC1CCN(Cc2c(O)ccc3c(=O)c(-c4cccc(Cl)c4)c(C(F)(F)F)oc23)CC1 [CBK266258] | 103

SMILES | viability at 28.5 h, 10 µM [%]
CN(C)CCN(C)[C@H]1CCCC[C@@H]1N(C)C(=O)Cc1ccc(Br)cc1 [CBK023819C] | 93.4
O=C(O)CCN/C(=N\S(=O)(=O)c1ccccc1)c1ccccc1 [CBK266111] | 92.2
CN(C)CCN1CCN(c2nc(-c3cccc4cccnc34)cnc2N)CC1 [CBK063464] | 94.3
c1ccc(CN2CCN(CCN3CCn4c3nc3ccccc34)CC2)cc1 [CBK265472B] | 97.5
Cc1cc(CNC(=S)Nc2ccc(S(N)(=O)=O)cc2)nn1C [CBK267077] | 98.7
CCCCSc1nc(N)cc(N2CCN3C(=O)CN(C)C(=O)C3C2)n1 (centres unmarked) [CBK306940] | 82.4
O=C(NCO)c1ccccc1O [CBK012717] | 93.9
CS(=O)(=O)NC1CCN(c2nc(C(=O)O)nc3ccccc23)CC1 [CBK304316N] | 105
O=C(Cc1c[nH]c2ccccc12)Nc1cncc(OC2CCNCC2)n1 [CBK028441T] | 91
CS(=O)(=O)N[C@H]1C[C@H]2C(=O)Nc3cc(Cl)ccc3C(=O)N2C1 [CBK289363] | 89
CCn1c(=O)n(CC(=O)N2CCCC2)c2cccnc21 [CBK283904] | 107
Cc1cnc2c(C(=O)N3CCCC3c3ccccn3)cnn2c1 (centres unmarked) [CBK304612] | 91.8
CCc1c(C)nc2c(C(=O)NCCCOC)cnn2c1C [CBK162149] | 82.2
Cc1nn2c(O)c3c(nc2c1-c1cccs1)CCC3 [CBK283729] | 85.7
COc1ccc(C)cc1-n1ccc(C(=O)N2CCSCC2)n1 [CBK305972] | 96.5
N#CCCCN1CCC(Oc2nccnc2OCc2cccc3ccccc23)CC1 [CBK161571] | 99.3
O=C(Nc1cc(F)ccc1N1CCCC1)c1ccc(=O)n(CC(=O)N2CCCCC2)c1 [CBK286083] | 97.7
Cc1cc(COc2cc(N3CCCNCC3)ncn2)no1 [CBK085462] | 95.4
Cc1ccc(-c2nc3ccccc3[nH]2)cc1NC(=O)COc1cccc([N+](=O)[O-])c1 [CBK265932] | 94.3
CS(=O)(=O)N1CC2(CCN(Cc3ccc([N+](=O)[O-])cc3)CC2)c2ccccc21 [CBK084010] | 104
Cc1ccc(S(=O)(=O)NCC(=O)Nc2ccc(C)cc2C(=O)c2ccccc2)cc1 [CBK265199] | 85.8
CC(C)(C)c1ccc(-n2cc(-c3ccc(F)cc3)nn2)cc1 [CBK113112] | 103

Source: article PMC12040169 (PLOS Biology, 2025)
